Source: patent US20250282776A1, “Bicyclic TLR7 Agonists and Uses Thereof” (Bristol-Myers Squibb Company, priority 2024, published 2025)

Key:
human TLR7 (hTLR7) = target: T1, human TLR7 (hTLR7) (Homo sapiens, UniProt Q9NYK1); assay: Human TLR7 agonist activity assay (HEK-Blue TLR7 SEAP reporter); type: cell-based; settings: HEK-Blue TLR7 cells, 18 h incubation, Quanti-Blue, OD 620 nm, some values average of multiple measurements
T1 construct: host or cells: HEK-Blue TLR7 cells (engineered human embryonic kidney cells)
T1 sequence (Q9NYK1 27-1049): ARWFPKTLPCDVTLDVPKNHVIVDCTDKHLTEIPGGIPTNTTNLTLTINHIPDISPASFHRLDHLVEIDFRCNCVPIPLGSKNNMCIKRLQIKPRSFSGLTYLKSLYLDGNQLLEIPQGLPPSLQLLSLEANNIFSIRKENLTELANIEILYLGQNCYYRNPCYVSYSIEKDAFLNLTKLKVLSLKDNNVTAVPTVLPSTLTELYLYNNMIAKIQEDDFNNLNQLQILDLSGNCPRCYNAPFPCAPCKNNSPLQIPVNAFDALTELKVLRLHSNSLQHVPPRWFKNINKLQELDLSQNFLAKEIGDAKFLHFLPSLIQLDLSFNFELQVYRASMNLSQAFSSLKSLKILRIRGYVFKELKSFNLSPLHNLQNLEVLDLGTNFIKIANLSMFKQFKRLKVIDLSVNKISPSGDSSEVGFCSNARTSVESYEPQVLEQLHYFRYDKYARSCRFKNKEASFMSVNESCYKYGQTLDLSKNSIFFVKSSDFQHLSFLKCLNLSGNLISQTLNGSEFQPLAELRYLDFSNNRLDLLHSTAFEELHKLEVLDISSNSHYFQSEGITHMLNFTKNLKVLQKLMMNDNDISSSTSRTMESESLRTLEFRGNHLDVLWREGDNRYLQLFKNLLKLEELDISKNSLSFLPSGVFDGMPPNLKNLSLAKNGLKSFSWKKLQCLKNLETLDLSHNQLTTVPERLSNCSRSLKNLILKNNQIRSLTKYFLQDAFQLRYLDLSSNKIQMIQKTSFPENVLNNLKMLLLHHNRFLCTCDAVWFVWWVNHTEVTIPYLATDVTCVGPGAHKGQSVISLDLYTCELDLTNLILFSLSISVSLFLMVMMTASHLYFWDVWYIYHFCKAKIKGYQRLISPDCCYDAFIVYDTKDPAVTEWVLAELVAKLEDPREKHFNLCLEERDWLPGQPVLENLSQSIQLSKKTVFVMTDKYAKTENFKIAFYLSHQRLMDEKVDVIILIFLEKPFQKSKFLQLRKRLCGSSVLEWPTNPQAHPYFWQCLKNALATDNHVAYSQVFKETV
Method in brief: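 HEK-Blue TLR7 cells seeded 16-18 h, then exposed to compound for 18 h at 37 °C, 5% CO2. Secreted SEAP read with Quanti-Blue at OD 620 nm after 30 min. EC50 taken as concentration giving half-maximal response between baseline and maximum; some values averaged over repeats.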

human TLR8 (hTLR8) = target: T2, human TLR8 (hTLR8) (Homo sapiens, UniProt Q9NR97); assay: Human TLR8 agonist activity assay (measured in a similar manner); type: cell-based; settings: HEK-Blue TLR cells, SEAP reporter, measured in a similar manner to TLR7; some values average of multiple measurements
T2 construct: expressed in transfected cells
T2 sequence (Q9NR97 27-1041): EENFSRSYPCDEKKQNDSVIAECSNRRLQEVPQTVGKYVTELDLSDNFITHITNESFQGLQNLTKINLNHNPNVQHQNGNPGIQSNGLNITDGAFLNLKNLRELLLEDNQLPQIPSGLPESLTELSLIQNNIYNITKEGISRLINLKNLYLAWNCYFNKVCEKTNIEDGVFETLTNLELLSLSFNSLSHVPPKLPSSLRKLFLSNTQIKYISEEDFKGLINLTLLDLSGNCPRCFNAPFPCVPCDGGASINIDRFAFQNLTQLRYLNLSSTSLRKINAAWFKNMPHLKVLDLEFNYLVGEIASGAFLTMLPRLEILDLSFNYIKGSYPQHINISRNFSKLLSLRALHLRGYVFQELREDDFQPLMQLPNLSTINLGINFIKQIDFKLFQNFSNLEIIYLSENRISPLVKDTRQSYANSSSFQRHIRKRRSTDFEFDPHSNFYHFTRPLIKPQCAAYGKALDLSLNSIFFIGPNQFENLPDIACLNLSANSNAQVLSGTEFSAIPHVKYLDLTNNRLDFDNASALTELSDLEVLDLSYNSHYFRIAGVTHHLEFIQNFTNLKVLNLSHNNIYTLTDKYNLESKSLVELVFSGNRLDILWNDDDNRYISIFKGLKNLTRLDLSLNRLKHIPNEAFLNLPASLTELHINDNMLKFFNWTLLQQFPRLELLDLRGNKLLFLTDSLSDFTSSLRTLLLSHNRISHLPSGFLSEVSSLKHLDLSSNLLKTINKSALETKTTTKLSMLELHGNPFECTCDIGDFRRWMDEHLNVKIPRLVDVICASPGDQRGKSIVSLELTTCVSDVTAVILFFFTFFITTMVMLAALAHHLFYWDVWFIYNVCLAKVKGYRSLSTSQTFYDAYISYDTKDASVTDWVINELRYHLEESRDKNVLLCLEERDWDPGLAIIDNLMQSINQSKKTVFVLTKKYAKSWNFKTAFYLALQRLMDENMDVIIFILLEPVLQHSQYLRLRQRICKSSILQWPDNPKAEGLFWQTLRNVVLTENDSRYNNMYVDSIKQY
Method in brief: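 Compounds were added to HEK-Blue TLR8 reporter cells, pre-incubated 16-18 h, then treated 18 h at 37° C, 5% CO2. SEAP output was measured with Quanti-Blue (30 min) at OD 620 nm. Some values are averages of multiple measurements.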

Structure (SMILES) | EC50 (human TLR7 (hTLR7)) [nM] | EC50 (human TLR8 (hTLR8)) [nM]
CCCCN(CCO)c1nc(N)nc2cn(Cc3ccc(CNC4CCC4)cc3C(F)F)nc12 [Compound 98] | 1560 | 1150
CCCCN(CCO)c1nc(N)nc2cn(Cc3ccc(CN[C@H]4CCOC4)cc3C(F)F)nc12 [Compound 99] | 1910 | 1580
CCCCN(CCO)c1nc(N)nc2cn(Cc3ccc(CNC4CCOCC4)cc3C(F)F)nc12 [Compound 100] | 1760 | 1420
CCCCN(CCO)c1nc(N)nc2cn(Cc3ccc(CN[C@H]4C[C@H](OCC)C4)cc3OC)nc12 [Compound 101] | 1600 | 1570
CCCCN(CCO)c1nc(N)nc2cn(Cc3ccc(CNC4CCC4)cc3NC)nc12 [Compound 102] | 2190 | 1800
CCCCN(CCO)c1nc(N)nc2cn(Cc3ccc(CNC4CCCOC4)cc3OC)nc12 (centres unmarked) [Compound 104] | 1750 | 2160
CCCCN(CCO)c1nc(N)nc2cn(Cc3ccc(CNC4CCCOC4)cc3OC)nc12 (centres unmarked) [Compound 105] | 1820 | 2780
CCCCN(CCO)c1nc(N)nc2cn(Cc3cc(OC)c(C4CCN(CC(C)(C)O)CC4)cc3OC)nc12 [Compound 107] | 1280 | 3030
CCCCN(CCO)c1nc(N)nc2cn(Cc3cc(OC)c(C4CCN(C5CC6(COC6)C5)CC4)cc3OC)nc12 [Compound 109] | 1460 | 1990
CCCCN(CCO)c1nc(N)nc2cn(Cc3c(F)cc(CN[C@H]4C[C@@H](OC)C4)cc3F)nc12 [Compound 118] | 1580 | 2500
CCCCN(CCO)c1nc(N)nc2cn(Cc3ccc(CNC4CCOC(C)C4)cc3OC)nc12 (centres unmarked) [Compound 125] | 2250 | 2030
CCCCNCc1ccc(Cn2cc3nc(N)nc(N(CCO)CCCC)c3n2)c(C(F)F)c1 [Compound 127] | 1800 | 2420
CCCCN(CCO)c1nc(N)nc2cn(Cc3ccc(CNC(C)(C)C)cc3C(F)F)nc12 [Compound 128] | 1190 | 628
CCCCN(CCO)c1nc(N)nc2cn(Cc3ccc(CNCC4CCC4)cc3C(F)F)nc12 [Compound 130] | 1900 | 1880
CCCCN(CCO)c1nc(N)nc2cn(Cc3ccc(CN[C@H]4CC[C@H](CO)CC4)cc3C(F)F)nc12 [Compound 131] | 1280 | 3330
CCCCN(CCO)c1nc(N)nc2cn(Cc3cccc4c3OCCN4C(=O)CNC3CCC3)nc12 [Compound 134] | 2240 | 1860
CCCCN(CCO)c1nc(N)nc2cn(Cc3ccc(CN[C@H]4C[C@H](OC)C4)c4c3OCCC4)nc12 [Compound 138] | 1410 | 608
CCCCN(CCO)c1nc(N)nc2cn(Cc3ccc(CN[C@H]4CCOC[C@H]4C)cc3OC)nc12 [Compound 139] | 1220 | 542
CCCCN(CCO)c1nc(N)nc2cn(Cc3ccc(CN[C@@H]4CCOC4)c4oc(C)nc34)nc12 [Compound 142] | 1630 | 915
CCCCN(CCO)c1nc(N)nc2cn(Cc3c(OC)cc(CNCCOC)cc3OC)nc12 [Compound 143] | 1700 | 1870

Further molecules by falling EC50 (human TLR7 (hTLR7)), results first:

EC50 (human TLR7 (hTLR7)) [nM] | EC50 (human TLR8 (hTLR8)) [nM] | Structure (SMILES)
1190 | 1970 | CCCCN(CCO)c1nc(N)nc2cn(Cc3c(F)cc(CN[C@H]4C[C@H](O)C4)cc3F)nc12 [Compound 117]
1160 | 1880 | CCCCN(CCO)c1nc(N)nc2cn(Cc3cc(OC)c(C4CCN(C5CCOCC5)CC4)cc3OC)nc12 [Compound 108]
1140 | 491 | CCCCN(CCO)c1nc(N)nc2cn(Cc3ccc(CN[C@@H]4CCOC4)c4c3OCCC4)nc12 [Compound 135]
1140 | 2500 | CCCCN(CCO)c1nc(N)nc2cn(Cc3cc(OC)c(C4CCN(CCOC)CC4)cc3OC)nc12 [Compound 106]
1060 | 1830 | CCCCN(CCO)c1nc(N)nc2cn(Cc3c(F)cc(CNCCOC)cc3F)nc12 [Compound 114]
1050 | 400 | CCCCN(CCO)c1nc(N)nc2cn(Cc3ccc(CNC4CCOCC4)c4c3OCCC4)nc12 [Compound 137]
1050 | 1050 | CCCCN(CCO)c1nc(N)nc2cn(Cc3ccc(CN4CCCC4)cc3C(F)F)nc12 [Compound 97]
993 | 674 | CCCCN(CCO)c1nc(N)nc2cn(Cc3ccc(CNC4CCC4)c4oc(C)nc34)nc12 [Compound 140, 2-((5-Amino-2-((7-((cyclobutylamino)methyl)-2-methylbenzo[d]oxazol-4-yl)methyl)-2H-pyrazolo-[4,3-d]pyrimidin-7-yl) (butyl)amino) ethan-1-ol]
937 | 2960 | CCCCN(CCO)c1nc(N)nc2cn(Cc3c(F)cc(CNCCO)cc3F)nc12 [Compound 113]
861 | 360 | CCCCN(CCO)c1nc(N)nc2cn(Cc3ccc(CN[C@H]4CCOC4)c4c3OCCC4)nc12 [Compound 136, (S)-2-((5-Amino-2-((5-(((tetrahydrofuran-3-yl)amino)methyl)chroman-8-yl)methyl)-2H-pyrazolo[4,3-d]pyrimidin-7-yl)(butyl)amino) ethan-1-ol]
513 | 2100 | CCCCN(CCO)c1nc(N)nc2cn(Cc3c(F)cc(N4CCC(NC5CC6(COC6)C5)CC4)cc3F)nc12 [Compound 133]
439 | 421 | CCCCN(CCO)c1nc(N)nc2cn(Cc3ccc(CN[C@H]4C[C@H](OC)C4)c4oc(C)nc34)nc12 [Compound 141, 2-((5-amino-2-((7-((((1r,3r)-3-methoxycyclobutyl)amino)methyl)-2-methylbenzo[d]oxazol-4-yl)methyl)-2H-pyrazolo[4,3-d]pyrimidin-7-yl)(butyl)amino)ethan-1-ol]
389 | 1860 | CCCCN(CCO)c1nc(N)nc2cn(Cc3c(F)cc(N4CCC(N[C@@H]5CCCOC5)CC4)cc3F)nc12 [Compound 132]
136 | 1960 | CCCCN(CCO)c1nc(N)nc2cn(Cc3c(F)cc(CN[C@H]4C[C@H](OC)C4)cc3F)nc12 [Compound 119]
108 | 1500 | CCCCN(CCO)c1nc(N)nc2cn(Cc3c(F)cc(CNC4CCOCC4)cc3F)nc12 [Compound 115]
39 | 702 | CCCCN(CCO)c1nc(N)nc2cn(Cc3cc(OC)c(C4CCN(C(C)C)CC4)cc3OC)nc12 [Compound 110]
31 | 1020 | CCCCN(CCO)c1nc(N)nc2cn(Cc3c(F)cc(CN[C@@H]4CCOC4)cc3F)nc12 [Compound 116]
